# Where no end group is shown, it is not given here.
# Experiments:
# [1] = test system: low grade prostate cancer (Gleason grade 6); experiment: clinical study: hemi-prostate multifocal cancer with Gleason upgrade (Example 1); format: in vivo, human; conditions: for % Imp. (hemi-prostate multifocal cancer with Gleason upgrade): vs active surveillance control
# Method: (§1) In a series of clinical studies a total of 146 men with low grade prostate cancer (Gleason grade 6) were treated in the following manner. Patients were randomized and treated with a transrectal intraprostatic single injection of a composition comprising 2.5 mg FT (n=49), or a composition comprising 15 mg FT (n=48), or were subject to control active surveillance (n=49). After the first follow-up biopsy at 45 days post-randomization, 18 patients in the control active surveillance group crossed over to a single administration of a composition comprising 2.5 mg FT. Patients were followed for 5 years including biopsies at baseline, 45 days, 18, 36, and 60 months, and urological evaluations with PSA every 6 months. Patients with Gleason grade increase or who elected surgical or radiotherapeutic intervention exited the study and were still included in the data analysis. Percentage of normal biopsies in the baseline focus quadrant and median tumor grade and volume were assessed; progression was measured by clinical and pathological outcomes including Gleason grade in the entire prostate sampled as well as for the treated prostate lobe. Interventions associated with Gleason grade increase as well as total incidence for any intervention was assessed.
# [2] = test system: low grade prostate cancer (Gleason grade 6); experiment: clinical study: hemi-prostate multifocal cancer with increase in Gleason primary pattern (Example 2); format: in vivo, human; conditions: for % Imp. (hemi-prostate multifocal cancer with increase in Gleason primary pattern): vs active surveillance control
# Method: as §1
# [3] = test system: low grade prostate cancer (Gleason grade 6); experiment: clinical study: cancer treatment with new multifocal with increased Gleason grade in the hemi-prostate (Example 3); format: in vivo, human; conditions: for % Imp. (cancer treatment with new multifocal with increased Gleason grade in the hemi-prostate): vs active surveillance control
# Method: as §1
# This example evaluated the percentage of patients who had conventional cancer treatment (e.g., surgery, radiotherapy, and/or chemotherapy), and who and who had multifocal prostate cancer in the lobe (or hemi-prostate) in which the foci were initially treated with Gleason upgrade (cancer treatment with new multifocal with increased Gleason grade in the hemi-prostate).
# [4] = test system: low grade prostate cancer (Gleason grade 6); experiment: clinical study: cancer treatment with new multifocal and an increase in Gleason grade primary pattern in the hemi-prostate (Example 4); format: in vivo, human; conditions: for % Imp. (cancer treatment with new multifocal and an increase in Gleason grade primary pattern in the hemi-prostate): vs active surveillance control
# Method: as §1
# This example evaluated the percentage of patients having conventional cancer treatment (surgery, radiotherapy, or chemotherapy), and having multifocal prostate cancer in the lobe (or hemi-prostate) in which the foci were initially treated with Gleason primary pattern (cancer treatment with new multifocal and an increase in Gleason grade primary pattern in the hemi-prostate).
# [5] = test system: prostate glandular epithelial cells; experiment: tissue culture genetic array, in vitro; format: cell-based
# Excerpt: Use of FT is a preferred embodiment. FT is a new molecular entity which in vitro stimulates caspase pathways (activation of caspases 7, 8, and 10, caspase recruitment domains 6, 11, and 14, and DIABLO), tumor necrosis factor pathways (activation of TNF1, TNFSF6, TNFSF8, TNFSF9, CD70 ligands, and TNFRSF19L, TNFRSF25, TRAF2, TRAF3, TRAF4, TRAF6 receptors), and BCL pathways (activation of BIK, HRK, BCL2L10 and BCL3) in prostate glandular epithelial cells, based on tissue culture genetic array data. […] The apoptotic process leads to typical ultrastructural progressive changes of membranous disruption and swelling, progressively deepening nuclear invaginations with eventual membranous bleb formations and cell death and fragmentation into apoptotic bodies. Histologically, typical apoptotic changes with positive immunohistochemical staining of markers for apoptosis are found throughout the injected areas for up to several weeks after treatment.
# [6] = FT 2.5 mg, single transrectal intraprostatic injection, <= 18 mos from treatment
# [7] = FT 2.5 mg, single transrectal intraprostatic injection, <= 36 mos from treatment
# [8] = FT 2.5 mg, single transrectal intraprostatic injection, <= 48 mos from treatment
# [9] = FT 15 mg, single transrectal intraprostatic injection, <= 18 mos from treatment
# [10] = FT 15 mg, single transrectal intraprostatic injection, <= 36 mos from treatment
# [11] = FT 15 mg, single transrectal intraprostatic injection, <= 48 mos from treatment
# [12] = Pooled FT (2.5 mg and 15 mg), <= 18 mos from treatment
# [13] = Pooled FT (2.5 mg and 15 mg), <= 36 mos from treatment
# [14] = Pooled FT (2.5 mg and 15 mg), <= 48 mos from treatment
substance,measurement,setting,value
Ile-Asp-Gln-Gln-Val-Leu-Ser-Arg-Ile-Lys-Leu-Glu-Ile-Lys-Arg-Cys-Leu (IDQQVLSRIKLEIKRCL; also: trifluoroacetate salt) [FT],percentage of patients with hemi-prostate multifocal cancer with Gleason upgrade,[1]; [6],8.6%
same,percentage of patients with hemi-prostate multifocal cancer with Gleason upgrade,[1]; [7],16.7%
same,percentage of patients with hemi-prostate multifocal cancer with Gleason upgrade,[1]; [8],42.9%
same,% Imp. (hemi-prostate multifocal cancer with Gleason upgrade),"[1]; FT 2.5 mg, <= 18 mos",54.26%
same,% Imp. (hemi-prostate multifocal cancer with Gleason upgrade),"[1]; FT 2.5 mg, <= 36 mos",53.2%
same,% Imp. (hemi-prostate multifocal cancer with Gleason upgrade),"[1]; FT 2.5 mg, <= 48 mos",5.7%
same,percentage of patients with hemi-prostate multifocal cancer with Gleason upgrade,[1]; [9],5.7%
same,percentage of patients with hemi-prostate multifocal cancer with Gleason upgrade,[1]; [10],9.1%
same,percentage of patients with hemi-prostate multifocal cancer with Gleason upgrade,[1]; [11],13.3%
same,% Imp. (hemi-prostate multifocal cancer with Gleason upgrade),"[1]; FT 15 mg, <= 18 mos",69.7%
same,% Imp. (hemi-prostate multifocal cancer with Gleason upgrade),"[1]; FT 15 mg, <= 36 mos",74.5%
same,% Imp. (hemi-prostate multifocal cancer with Gleason upgrade),"[1]; FT 15 mg, <= 48 mos",70.8%
same,percentage of patients with hemi-prostate multifocal cancer with Gleason upgrade,[1]; [12],7.1%
same,percentage of patients with hemi-prostate multifocal cancer with Gleason upgrade,[1]; [13],13.0%
same,percentage of patients with hemi-prostate multifocal cancer with Gleason upgrade,[1]; [14],27.6%
same,% Imp. (hemi-prostate multifocal cancer with Gleason upgrade),"[1]; Pooled FT, <= 18 mos",62.2%
same,% Imp. (hemi-prostate multifocal cancer with Gleason upgrade),"[1]; Pooled FT, <= 36 mos",63.6%
same,% Imp. (hemi-prostate multifocal cancer with Gleason upgrade),"[1]; Pooled FT, <= 48 mos",39.3%
same,percentage of patients with hemi-prostate multifocal cancer with increase in Gleason primary pattern,[2]; [6],0%
same,percentage of patients with hemi-prostate multifocal cancer with increase in Gleason primary pattern,[2]; [7],0%
same,percentage of patients with hemi-prostate multifocal cancer with increase in Gleason primary pattern,[2]; [8],0%
same,% Imp. (hemi-prostate multifocal cancer with increase in Gleason primary pattern),"[2]; FT 2.5 mg, <= 18 mos",100%
same,% Imp. (hemi-prostate multifocal cancer with increase in Gleason primary pattern),"[2]; FT 2.5 mg, <= 36 mos",100%
same,% Imp. (hemi-prostate multifocal cancer with increase in Gleason primary pattern),"[2]; FT 2.5 mg, <= 48 mos",100%
same,percentage of patients with hemi-prostate multifocal cancer with increase in Gleason primary pattern,[2]; [9],2.9%
same,percentage of patients with hemi-prostate multifocal cancer with increase in Gleason primary pattern,[2]; [10],4.5%
same,percentage of patients with hemi-prostate multifocal cancer with increase in Gleason primary pattern,[2]; [11],6.7%
same,% Imp. (hemi-prostate multifocal cancer with increase in Gleason primary pattern),"[2]; FT 15 mg, <= 18 mos",76.8%
same,% Imp. (hemi-prostate multifocal cancer with increase in Gleason primary pattern),"[2]; FT 15 mg, <= 36 mos",79%
same,% Imp. (hemi-prostate multifocal cancer with increase in Gleason primary pattern),"[2]; FT 15 mg, <= 48 mos",75.5%
same,percentage of patients with hemi-prostate multifocal cancer with increase in Gleason primary pattern,[2]; [12],1.4%
same,percentage of patients with hemi-prostate multifocal cancer with increase in Gleason primary pattern,[2]; [13],2.2%
same,percentage of patients with hemi-prostate multifocal cancer with increase in Gleason primary pattern,[2]; [14],3.4%
same,% Imp. (hemi-prostate multifocal cancer with increase in Gleason primary pattern),"[2]; Pooled FT, <= 18 mos",88.8%
same,% Imp. (hemi-prostate multifocal cancer with increase in Gleason primary pattern),"[2]; Pooled FT, <= 36 mos",89.7%
same,% Imp. (hemi-prostate multifocal cancer with increase in Gleason primary pattern),"[2]; Pooled FT, <= 48 mos",87.5%
same,percentage of patients with cancer treatment with new multifocal with increased Gleason grade in the hemi-prostate,[3]; [6],4.9%
same,percentage of patients with cancer treatment with new multifocal with increased Gleason grade in the hemi-prostate,[3]; [7],10%
same,percentage of patients with cancer treatment with new multifocal with increased Gleason grade in the hemi-prostate,[3]; [8],17.4%
same,% Imp. (cancer treatment with new multifocal with increased Gleason grade in the hemi-prostate),"[3]; FT 2.5 mg, <= 18 mos",69%
same,% Imp. (cancer treatment with new multifocal with increased Gleason grade in the hemi-prostate),"[3]; FT 2.5 mg, <= 36 mos",57.4%
same,% Imp. (cancer treatment with new multifocal with increased Gleason grade in the hemi-prostate),"[3]; FT 2.5 mg, <= 48 mos",44.4%
same,percentage of patients with cancer treatment with new multifocal with increased Gleason grade in the hemi-prostate,[3]; [9],5.1%
same,percentage of patients with cancer treatment with new multifocal with increased Gleason grade in the hemi-prostate,[3]; [10],7.1%
same,percentage of patients with cancer treatment with new multifocal with increased Gleason grade in the hemi-prostate,[3]; [11],8.3%
same,% Imp. (cancer treatment with new multifocal with increased Gleason grade in the hemi-prostate),"[3]; FT 15 mg, <= 18 mos",67.7%
same,% Imp. (cancer treatment with new multifocal with increased Gleason grade in the hemi-prostate),"[3]; FT 15 mg, <= 36 mos",69.8%
same,% Imp. (cancer treatment with new multifocal with increased Gleason grade in the hemi-prostate),"[3]; FT 15 mg, <= 48 mos",73.5%
same,percentage of patients with cancer treatment with new multifocal with increased Gleason grade in the hemi-prostate,[3]; [12],5%
same,percentage of patients with cancer treatment with new multifocal with increased Gleason grade in the hemi-prostate,[3]; [13],8.6%
same,percentage of patients with cancer treatment with new multifocal with increased Gleason grade in the hemi-prostate,[3]; [14],12.8%
same,% Imp. (cancer treatment with new multifocal with increased Gleason grade in the hemi-prostate),"[3]; Pooled FT, <= 18 mos",68.4%
same,% Imp. (cancer treatment with new multifocal with increased Gleason grade in the hemi-prostate),"[3]; Pooled FT, <= 36 mos",63.4%
same,% Imp. (cancer treatment with new multifocal with increased Gleason grade in the hemi-prostate),"[3]; Pooled FT, <= 48 mos",59.1%
same,percentage of patients with cancer treatment with new multifocal and an increase in Gleason grade primary pattern in the hemi-prostate,[4]; [6],0%
same,percentage of patients with cancer treatment with new multifocal and an increase in Gleason grade primary pattern in the hemi-prostate,[4]; [7],0%
same,percentage of patients with cancer treatment with new multifocal and an increase in Gleason grade primary pattern in the hemi-prostate,[4]; [8],0%
same,% Imp. (cancer treatment with new multifocal and an increase in Gleason grade primary pattern in the hemi-prostate),"[4]; FT 2.5 mg, <= 18 mos",100%
same,% Imp. (cancer treatment with new multifocal and an increase in Gleason grade primary pattern in the hemi-prostate),"[4]; FT 2.5 mg, <= 36 mos",100%
same,% Imp. (cancer treatment with new multifocal and an increase in Gleason grade primary pattern in the hemi-prostate),"[4]; FT 2.5 mg, <= 48 mos",100%
same,percentage of patients with cancer treatment with new multifocal and an increase in Gleason grade primary pattern in the hemi-prostate,[4]; [9],2.6%
same,percentage of patients with cancer treatment with new multifocal and an increase in Gleason grade primary pattern in the hemi-prostate,[4]; [10],3.6%
same,percentage of patients with cancer treatment with new multifocal and an increase in Gleason grade primary pattern in the hemi-prostate,[4]; [11],4.2%
same,% Imp. (cancer treatment with new multifocal and an increase in Gleason grade primary pattern in the hemi-prostate),"[4]; FT 15 mg, <= 18 mos",75.2%
same,% Imp. (cancer treatment with new multifocal and an increase in Gleason grade primary pattern in the hemi-prostate),"[4]; FT 15 mg, <= 36 mos",79.5%
same,% Imp. (cancer treatment with new multifocal and an increase in Gleason grade primary pattern in the hemi-prostate),"[4]; FT 15 mg, <= 48 mos",77.7%
same,percentage of patients with cancer treatment with new multifocal and an increase in Gleason grade primary pattern in the hemi-prostate,[4]; [12],1.3%
same,percentage of patients with cancer treatment with new multifocal and an increase in Gleason grade primary pattern in the hemi-prostate,[4]; [13],1.7%
same,percentage of patients with cancer treatment with new multifocal and an increase in Gleason grade primary pattern in the hemi-prostate,[4]; [14],2.1%
same,% Imp. (cancer treatment with new multifocal and an increase in Gleason grade primary pattern in the hemi-prostate),"[4]; Pooled FT, <= 18 mos",87.6%
same,% Imp. (cancer treatment with new multifocal and an increase in Gleason grade primary pattern in the hemi-prostate),"[4]; Pooled FT, <= 36 mos",90.3%
same,% Imp. (cancer treatment with new multifocal and an increase in Gleason grade primary pattern in the hemi-prostate),"[4]; Pooled FT, <= 48 mos",88.8%
same,"effect on BCL pathways (activation of BIK, HRK, BCL2L10 and BCL3)",[5],stimulates
same,"effect on caspase pathways (activation of caspases 7, 8, and 10, caspase recruitment domains 6, 11, and 14, and DIABLO)",[5],stimulates
same,"effect on tumor necrosis factor pathways (activation of TNF1, TNFSF6, TNFSF8, TNFSF9, CD70 ligands, and TNFRSF19L, TNFRSF25, TRAF2, TRAF3, TRAF4, TRAF6 receptors)",[5],stimulates

# Source: US12329802B2, “Focal treatment of prostate cancer” (Nymox Corporation, priority 2019, dated 2025)
